The text below walks through data of paper PMC10384936, “Identification and Biological Characterization of the Pyrazolo[3,4-d]pyrimidine Derivative SI388 Active as Src Inhibitor” (Pharmaceuticals, 2023).

The subject of assay [1] is T98G cells. Nature of the assay: Clonogenic assay, T98G. It counts as cell-based. Conditions: 10 nM, 1 µM, 25 µM for 24 h, colonies after 15 days. The protocol:
(§1) To further characterize the ability of SI388 to inhibit tumor growth, we performed clonogenic assays using T98G and U251 cell lines. Cells were starved and treated for 24 h with increasing concentration (10 nM, 1 µM, and 25 µM) of SI388 or DAS. The ability of single cells to proliferate and produce colonies was evaluated after 15 days, both in control conditions (treated with DMSO) and after treatment with different Src inhibitors.
(§2) For colony formation, control and irradiated (5 Gy) cells were seeded at the concentration of 1000 cells/dish in 6-well culture plates and incubated at 37 °C, 5% CO2 for 10–15 days.
(§3) Crystal violet solution (10% (v/v) methanol and 0.5% Crystal Violet) was used to fix and stain colonies, upon 20 min incubation. The stained colonies (>50 cells) were counted under a microscope or using Image “Colonyarea” plugin. Data were expressed as the mean and SD of three independent experiments.

Assay [2] concerns U251 cells. The experiment in a line: Clonogenic assay, U251. The format is cell-based. Conditions: 10 nM, 1 µM, 25 µM for 24 h, colonies after 15 days. The procedure: as §1, §2, §3
The subject of assay [3] is GBMSC83 cells. The experiment in a line: Neurosphere formation, cell counting and sphere size, GBMSC83. It counts as cell-based. The note with it: 1 µM, 72 h, vs control. The protocol: GBMSC83 cells were seeded at the density of 1 × 10^4 cells/well in a 96-well ultralow attachment plate, and the following day they were treated with SI388 1 µM or dasatinib 1 µM. After 72 h from treatment, cells were stained with Hoechst 33,342 (Thermo Fisher Scientific) and images were acquired with Fluorescence microscopy (ZEISS) and processed with Fiji version 2.3. Hoechst positive nuclei were counted by particle detection instrument of ComDet Plugin of Fiji. The bright fields were acquired and processed by Cell Profiler version 2.1.1 to measure spheres’ diameter and reported as the fold change from the control condition.

The test system of assay [4] is GBMSC83 cells. The experiment in a line: Cell death analysis, Annexin V-PI cytofluorimetry after IR, GBMSC83. It counts as cell-based. Conditions: 1 µM pre-treatment 24 h, IR 10 Gy, 48 h after IR, vs control. The protocol: GBMSC83 cells were pretreated with 1 µM SI388 or 1 µM DAS, or DMSO as a control, for 24 h and then irradiated (10 Gy). After 48 h from IR, cytofluorimetric analysis of AnnexinV-PI staining was performed.
1 × 10^6 cells were analyzed for cell death 48 h from ionizing radiation (10 Gy) upon staining with Annexin V-APC-propidium iodide (PI) kit, according to manufacturer instructions (eBioscience™ Annexin V apoptosis detection kits, ThermoFisher Scientific, Waltham, MA, USA). Unstained samples were used as the control. CytoFLEX S (Beckman Coulter, Milan, Italy) instrument was used to quantify the double staining. Quality control was evaluated using CytoFLEX Daily QC Fluorospheres (Beckman Coulter). CytExpert version 2.2 software (Beckman Coulter) was used to analyze FCS files. Dead cells were graphed as fold change to control conditions.

Another assay deals with T1, Src (Homo sapiens, UniProt P12931).
T1 construct: purchased Merck-Millipore
T1 sequence (P12931 whole entry, species assumed): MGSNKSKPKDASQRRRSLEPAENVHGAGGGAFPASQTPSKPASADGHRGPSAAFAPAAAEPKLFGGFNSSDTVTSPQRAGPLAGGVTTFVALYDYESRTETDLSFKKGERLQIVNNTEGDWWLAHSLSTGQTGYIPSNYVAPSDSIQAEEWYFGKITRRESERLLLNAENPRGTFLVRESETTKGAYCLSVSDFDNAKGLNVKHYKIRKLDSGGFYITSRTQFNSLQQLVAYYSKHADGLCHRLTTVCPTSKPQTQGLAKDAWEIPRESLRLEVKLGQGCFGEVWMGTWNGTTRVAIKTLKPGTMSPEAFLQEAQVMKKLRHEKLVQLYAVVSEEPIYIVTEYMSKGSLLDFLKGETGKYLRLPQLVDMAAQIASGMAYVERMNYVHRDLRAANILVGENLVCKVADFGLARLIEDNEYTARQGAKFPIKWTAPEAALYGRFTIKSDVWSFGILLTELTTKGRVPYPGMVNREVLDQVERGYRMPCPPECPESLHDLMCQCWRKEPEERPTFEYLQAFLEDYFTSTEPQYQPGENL
The experiment in a line: Src enzymatic assay (ADP-Glo kinase assay). It counts as biochemical. Conditions: for Ki: mean of at least three experiments, 100 μM ATP. The procedure:
(§4) Src, Fyn, and Abl were purchased from Merck-Millipore. Reactions were performed according to the manufacturer’s instructions with minor modifications. All substrates were used at least at twice the concentration of apparent Km. In detail: Src reactions were performed using 500 μM Src-peptide (KVEKIGEGTYGVVYK), 100 μM ATP, and 0.00087% NP-40; Fyn reactions were performed using 360 μM Src-peptide (KVEKIGEGTYGVVYK), 200 μM ATP, and 0.0026% NP-40; Abl reactions were performed using 50 μM abltide (EAIYAAPFAKKK), 30 μM ATP, and 0.00087% NP-40. All reactions were performed using 10–50 ng of enzyme and 10% DMSO in 10 μL of kinase buffer (8 mM MOPS-NaOH pH7.0, 0.2 mM EDTA, 10 mM MgAc) at 30 °C for 10 min.
(§5) To avoid peptide adsorbing to the plastic surface, protein low-binding tubes were used. ADP-Glo kinase assay (Promega) was then used to detect kinase activity according to the manufacturer’s instructions with minor modifications. In detail, reactions were transferred to white 384 well-plates and stopped by adding 10 µL of ADP-Glo reagent (Promega) for 50 min at room temperature. A total of 20 μL of detection reagent (Promega) was then added for 30 min and the reaction read using a GloMax Discover microplate reader (Promega). Data were plotted using GraphPad Prism 5.0. IC50 values were obtained according to Equation (1):v = V/{1 + (I/IC50)} (1) where v is the measured reaction velocity, V is the apparent maximal velocity in the absence of inhibitor, I is the inhibitor concentration, and IC50 is the 50% inhibitory dose. Compounds tested were assumed to act as fully ATP-competitive inhibitors. Therefore, Ki values were calculated according to Equation (2):Ki = IC50/(1+ […]) (2) where Ki is the affinity of the inhibitor to the enzyme, S is the ATP concentration, and Km is the affinity of ATP calculated according to the Michaelis–Menten equation.
Background: In ADP-Glo the light output rises with the ADP produced.

The target in another assay is T2, Abl (Homo sapiens, UniProt P00519).
T2 construct: purchased Merck-Millipore
T2 sequence (P00519 whole entry, species assumed): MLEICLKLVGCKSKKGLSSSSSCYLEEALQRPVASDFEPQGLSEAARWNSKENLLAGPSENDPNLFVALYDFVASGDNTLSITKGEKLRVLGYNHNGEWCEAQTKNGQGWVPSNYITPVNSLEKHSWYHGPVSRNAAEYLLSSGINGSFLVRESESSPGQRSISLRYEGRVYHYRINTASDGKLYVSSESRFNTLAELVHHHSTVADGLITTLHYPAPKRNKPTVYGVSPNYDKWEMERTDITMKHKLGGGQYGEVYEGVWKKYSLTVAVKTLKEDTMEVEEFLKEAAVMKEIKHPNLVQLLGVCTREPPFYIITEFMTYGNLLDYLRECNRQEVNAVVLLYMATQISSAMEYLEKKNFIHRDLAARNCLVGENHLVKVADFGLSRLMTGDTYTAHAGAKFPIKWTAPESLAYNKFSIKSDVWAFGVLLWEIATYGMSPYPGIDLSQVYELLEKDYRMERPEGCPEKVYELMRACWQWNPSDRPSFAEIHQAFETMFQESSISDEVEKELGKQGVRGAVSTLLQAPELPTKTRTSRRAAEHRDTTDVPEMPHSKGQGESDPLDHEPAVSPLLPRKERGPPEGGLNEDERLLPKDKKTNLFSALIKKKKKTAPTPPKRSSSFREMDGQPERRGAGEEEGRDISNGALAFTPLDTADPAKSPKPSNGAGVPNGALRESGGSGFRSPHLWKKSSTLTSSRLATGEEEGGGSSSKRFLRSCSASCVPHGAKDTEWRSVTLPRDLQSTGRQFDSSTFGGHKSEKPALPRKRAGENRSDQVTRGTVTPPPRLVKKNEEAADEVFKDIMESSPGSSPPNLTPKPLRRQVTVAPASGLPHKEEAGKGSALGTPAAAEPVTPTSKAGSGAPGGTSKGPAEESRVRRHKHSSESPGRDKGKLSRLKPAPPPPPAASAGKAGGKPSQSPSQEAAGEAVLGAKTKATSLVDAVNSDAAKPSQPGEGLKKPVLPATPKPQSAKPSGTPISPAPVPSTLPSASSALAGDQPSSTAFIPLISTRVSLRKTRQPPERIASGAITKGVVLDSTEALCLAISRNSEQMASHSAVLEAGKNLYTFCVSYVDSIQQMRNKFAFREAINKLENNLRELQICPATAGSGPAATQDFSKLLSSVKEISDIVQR
Nature of the assay: Abl enzymatic assay (ADP-Glo kinase assay). It counts as biochemical. Conditions: for Ki: mean of at least three experiments, 30 μM ATP, read-out: Bcr-Abl Ki. The protocol:
as §4, §5

Another assay has as its target Bcr-Abl. Further details: method as in PMID 23746084, PMID 28650650, PMID 25469771, PMID 21443205, PMID 17929792. Conditions: in-house lead compounds, Figure 1; cited from earlier work.
The test system of the next assay is osteosarcoma. Further details: method as in PMID 17929792. The note with it: cited from earlier work.
For a further assay, the target named is T3, Fyn (Homo sapiens, UniProt P06241).
T3 construct: purchased Merck-Millipore
T3 sequence (P06241 whole entry, species assumed): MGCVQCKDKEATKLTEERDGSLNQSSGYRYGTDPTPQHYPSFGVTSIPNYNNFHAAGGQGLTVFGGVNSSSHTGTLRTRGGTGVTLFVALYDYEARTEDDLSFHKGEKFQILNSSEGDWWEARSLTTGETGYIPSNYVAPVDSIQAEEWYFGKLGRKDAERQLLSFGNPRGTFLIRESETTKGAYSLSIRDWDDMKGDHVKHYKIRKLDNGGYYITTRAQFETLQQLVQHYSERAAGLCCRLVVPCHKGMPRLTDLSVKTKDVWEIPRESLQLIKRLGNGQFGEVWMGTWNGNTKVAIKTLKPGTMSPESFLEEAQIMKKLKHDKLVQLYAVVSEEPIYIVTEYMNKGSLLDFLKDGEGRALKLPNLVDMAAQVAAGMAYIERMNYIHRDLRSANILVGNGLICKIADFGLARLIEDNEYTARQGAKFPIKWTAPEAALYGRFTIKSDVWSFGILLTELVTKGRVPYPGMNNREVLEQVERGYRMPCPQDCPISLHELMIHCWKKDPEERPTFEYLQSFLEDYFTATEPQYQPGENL
Nature of the assay: Fyn enzymatic assay (ADP-Glo kinase assay). It counts as biochemical. The procedure: as §4, §5

In assay [5] the test system is Src phosphorylation on Tyr416 in U251 cells. Nature of the assay: Immunoblotting of pY416-Src in U251 cells. The note with it: 10 nM and 1 µM, 24 h, vs DMSO. The format is cell-based. The procedure:
Dasatinib (Sigma Aldrich, DAS, Merck Millipore, Burlington, MA, USA), SI388 and SI83 were used at different concentration (10 nM, 1 µM or 25 µM) for 24 h upon serum deprivation. DMSO (Sigma Aldrich) was used as the control.
(§6) Cell extracts were prepared in RIPA (50 mM Tris-HCl pH 8.0, 150 mM NaCl, 1% NP40, 1 mM EGTA, 1 mM EDTA, 0.25% sodium deoxycholate) or IP buffer (50 mM Tris–HCl pH 7.5, 250 mM NaCl, 1% NP-40, 5 mM EDTA, 5 mM EGTA) supplemented with protease and phosphatase inhibitors (Roche Diagnostic, Mannheim, Germany). For immunoblotting, 25–30 µg of protein was separated by sodium dodecyl sulfate (SDS) polyacrylamide gel electrophoresis (PAGE), blotted onto nitrocellulose membrane, and detected with specific antibodies.

The test system of assay [6] is T98G cells. Nature of the assay: MTS cell viability assay, T98G. It counts as cell-based. Conditions: 72 h, 10 nM, 1 µM, 25 µM. The procedure: (§7) Next, the ability of SI388 to inhibit cell viability was evaluated using an MTS assay.
(§8) Cells were plated in 96 multiwells (1000 cells/well) in 100 µL of the complete medium. The following day, after 24 h of starvation, the cells were treated with DMSO, dasatinib or SI388 at different concentrations (10 nM, 1 µM, 25 µM). After 72 h, cells were treated with tetrazolium (Promega) for 1–2 h. The quantity of formazan product is directly proportional to the number of living cells in the culture. The plate is then read with a plate reader measuring the absorbance of 490 nm for the different conditions.
(Tetrazolium dyes change colour on reduction, which living cells bring about.)

Assay [7] has as its system U251 cells. Nature of the assay: MTS cell viability assay, U251. The format is cell-based. Conditions: 72 h, 10 nM, 1 µM, 25 µM. The procedure:
as §7, §8

Assay [8] relates to Src phosphorylation on Tyr416 in GBMSC83 cells. The experiment in a line: Immunoblotting of pY416-Src in GBMSC83 cells. The format is cell-based. The note with it: 1 µM, 24 h. The procedure:
as §6
Background: A western blot detects proteins with antibodies after separation by electrophoresis.

Assay [9] deals with T98G cells. Nature of the assay: MTS assay after ionizing radiation, T98G. Conditions: 1 µM pre-treatment 24 h, IR 10 Gy, 48 h after IR, statistically significant. The format is cell-based. The procedure: (§9) To this aim, T98G and U251 cells were pre-incubated or not with SI388 for 24 h and then irradiated (10 Gy).
as §8

The subject of assay [10] is U251 cells. Nature of the assay: MTS assay after ionizing radiation, U251. It counts as cell-based. The note with it: 1 µM pre-treatment 24 h, IR 10 Gy, 48 h after IR, not statistically significant. The procedure:
as §9, §8

Another assay relates to NB. Further details: method as in PMID 28650650, PMID 25469771. The note with it: cited from earlier work.
The subject of another assay is GBM. Further details: method as in PMID 28650650, PMID 25469771. The note with it: cited from earlier work.
A further assay concerns 32D-T315I CML cells. Conditions: mice inoculated with 32D-T315I CML cells; cited from earlier work.

As to `Cc1nc(Nc2ncc(C(=O)Nc3c(C)cccc3Cl)s2)cc(N2CCN(CCO)CC2)n1` [dasatinib, reference compound], the “Colony formation (cell growth and proliferation)” value with T98G cells [1] was “impaired cell growth and proliferation in a dose-dependent manner”; with U251 cells [2] it was “impaired cell growth and proliferation in a dose-dependent manner”. Further, in the assay with GBMSC83 cells [3], the Mean neurosphere diameter result was “overall reduced diameter of the spheres”. The “Number of cells per sphere” value in the assay on GBMSC83 cells [3] was “reduced average number of cells per sphere”. Further, the “Percentage of cell death after IR (AnnexinV-PI)” value in the assay with GBMSC83 cells [4] was “significantly increased the percentage of cell death”.

As usually defined, the Ki is the dissociation constant of the complex between target and ligand, obtained from inhibition or displacement. For the compound `CSc1nc(Nc2cccc(Cl)c2)c2cnn(CC(Cl)c3ccccc3)c2n1` (stereo not drawn) [1a, reference compound], the Ki at Src, on Abl and at Bcr-Abl was 600 nM throughout. Besides, the “Activity in xenograft mouse model of osteosarcoma” value in the assay on osteosarcoma is on record as “active”.

Usually inhibition stands for the share of the control response that was lost under treatment. Regarding `CSc1nc(Nc2ccccc2Cl)c2cnn(CC(Cl)c3ccccc3)c2n1` (stereo not drawn) [2a, 1-(2-Chloro-2-phenylethyl)-N-(2-chlorophenyl)-6-(methylthio)-1H-pyrazolo[3,4-d]pyrimidin-4-amine], the results for the inhibition at 10 µM against Src (10 µM), against Fyn (10 µM) and on Abl (10 µM) were 90%, 90.7% and 72%, respectively. Besides, the Ki on Src worked out at 423 ± 93 nM; on Fyn (mean of at least three experiments, 200 μM ATP), 419 ± 75 nM; on Abl, 450 ± 290 nM. Further, the “Src phosphorylation on Tyr416 (pY416-Src)” value in assay [5] is reported as “reduction in Src phosphorylation on Tyr416”. The “Colony formation (cell growth and proliferation)” value was “impaired cell growth and proliferation in a dose-dependent manner” in the assay with T98G cells [1]; “impaired cell growth and proliferation in a dose-dependent manner” in the assay with U251 cells [2]. Also, the “Cell viability (MTS)” value in the assay with T98G cells [6] and in the assay on U251 cells [7] was “significantly impaired cell viability” each time. For the same compound, the “Phosphorylation of Src on Tyr416” value in assay [8] was “significant reduction in phosphorylation of Src on Tyr416”. The Mean neurosphere diameter result with GBMSC83 cells [3] was “overall reduced diameter of the spheres”. Also, the “Number of cells per sphere” value in the assay on GBMSC83 cells [3] is on record as “reduced average number of cells per sphere”. The “Sensitivity to IR (inhibition of cell viability, MTS)” value with T98G cells [9] and in the assay with U251 cells [10] was “increases the sensitivity to IR” in each case. In addition, in the assay with GBMSC83 cells [4], the “Percentage of cell death after IR (AnnexinV-PI)” value is listed as “significantly increased the percentage of cell death”.

Regarding `ClC(Cn1ncc2c(Nc3cccc(Br)c3)nc(SCCN3CCOCC3)nc21)c1ccccc1` (stereo not drawn) [1c], the Ki at Bcr-Abl is 120 nM. Moreover, the “Activity in in vivo model of NB” value in the assay with NB is reported as “showed activity”. Further, the “Activity in in vivo model of GBM” value in the assay on GBM is “showed activity”.

Consider `ClC(Cn1ncc2c(Nc3ccccc3)ncnc21)c1ccc(Br)cc1` (stereo not drawn) [1b], for which the “Reduction of tumor volume” value with 32D-T315I CML cells is listed as “more than 50%”.
